Data from US20070142396A1, “Treatment of pain with 1-[3-[4-(3-chlorophenyl)-1-piperazinyl]propyl]-5-methoxy-3,4-dihydro-2(1H)-quinolone or salt thereof” (Vela Pharmaceuticals, Inc., priority 2005, published 2007).

Key:
Format in all cases: in vivo, rat
[1] = test system: rats with spinal nerve ligature (Chung neuropathic pain model); experiment: Chung spinal nerve ligation (L5 and L6) neuropathic pain model, thermal stimulation (Example 2); conditions: for Paw Withdrawal Latency (s) Lesioned Paw / Paw Withdrawal Latency (s) Non-lesioned Paw: hypersensitivity test after 8 days of twice daily administration
Source text: (§1) The Chung neuropathic pain model (Kim and Chung, Pain, 50: 355-363, 1992), employs spinal nerve ligation (SNL) in a rat. Tight ligature of spinal nerves in a rat is associated with hyperalgesia, allodynia and spontaneous pain. Antihyperalgesics reduce these chronic signs of pain hypersensitivity. Thus, the Chung model permits testing of the antihyperalgesic activity of compounds in rats with neuropathic pain. The Chung model constitutes a model for peripheral neuropathic pain in humans, and was employed as follows.
(§2) Male Rj: Wistar (Han) rats, weighing 264-369 g at the beginning of the experiment, were obtained from Elevage Janvier, 53940 Le Genest-Saint-Isle, France. The rats were acclimatized to laboratory conditions for at least 5 days before the surgery phase of the experiment. The rats were housed in groups of five in macrolon cages (41×25×14 cm) on wood litter (Litalabo—SPPS, 95100 Argenteuil, France) with free access to food (code 113—SAFE, 91360 Epinay-sur-Orge, France) and water until tested. The animal houses were maintained under artificial lighting (12 hours) between 7:00 AM and 7:00 PM in a controlled ambient temperature of 21±3° C., and with relative humidity maintained at 40-70%.
(§3) Rats (264-369 g) were anesthetized with sodium pentobarbital (50 mg/kg i.p.), and an incision at the L4-S2 level was made to expose the left L5 and L6 spinal nerves. A ligature was tied tightly around each nerve. The wound was then sutured. The rats received an i.m. injection of 50,000 IU penicillin G and were allowed to recover. At least 2 weeks after the surgery, when the chronic state was fully installed, rats were submitted consecutively to tactile and thermal stimulation of both the non-lesioned and the lesioned hindpaws.
(§4) Doses of OPC-14523 were prepared in stock solutions (weight per volume, W/V), then in dilutions (volume per volume, V/V), as appropriate. The compound was dispersed in 0.5% tragacanth in distilled water. Morphine was dissolved in physiological saline as a reference standard for treatment of pain. The solutions for the test and reference substances were prepared fresh on the day of the experiment.
(§5) The vehicle, OPC-14523, and reference (morphine) compound were each administered in a volume of 5 ml/kg body weight. The doses of OPC-14523 were expressed in mg of substance per kg body weight and administered orally (p.o.). The vehicle control was also administered orally. The dose of morphine was expressed in mg of hydrochloride salt per kg body weight and administered i.p.
(§6) Each animal was tested at 30 minutes, 1 hour, 2 hours and 4 hours after the administration of a substance. Testing occurred in the morning.
(§7) To evaluate chronic drug administration and hypersensitivity induction, animals received a second substance treatment in the afternoon, after acute testing. The animals then received twice-daily substance treatment for an additional 9 days. To test for induction of hypersensitivity, the animals were tested, on the ninth day, 30 minutes before the first substance administration in the morning. The effect of chronic administration was tested on the tenth day 30 minutes, 1 hour, 2 hours and 4 hours after the administration of the substance in the morning.
An apparatus (Ugo Basile, Product reference: 7371, Comerio, Italy) consisted of six individual Plexiglas® boxes (17×11×14 cm) placed upon an elevated glass floor. A rat was placed in the box and left free to habituate for 10 minutes. Then, a mobile infrared radiant source was focused under the non-lesioned and lesioned hindpaws. The paw-withdrawal latencies were automatically recorded. Paw withdrawal interrupts the reflected radiation and switches off the counter and the light source. In order to prevent tissue damage, the test was terminated after 45 seconds if no reaction was noted.
Prior to receiving drug treatment, all animals were submitted to tactile stimulation and assigned to treatment groups, matched on the basis of their pain response. […]

[2] = test system: rats with spinal nerve ligature (Chung neuropathic pain model); experiment: Chung neuropathic pain model, cold allodynia on cold plate (Example 3); conditions: cold plate
Source text: (§8) The rats used in this experiment were the same rats used in Example 2. The materials and methods for this experiment were identical to those for Example 2 with the following exceptions: there was a 1-week washout between the two experiments, and the rats weighed 290-403 g at the start of this experiment. Prior to receiving drug treatment, all animals were submitted to tactile stimulation and assigned to treatment groups matched on the basis of their pain response. No account was taken of the treatment administered during the first experiment in assigning animals to treatment groups for this experiment.
(§9) All of the substances were administered orally. Morphine, dissolved in distilled water, was administered at 128 mg/kg dose p.o. Rats were tested 30 minutes, 1 hour, 2 hours, and 4 hours after administration of the substances.
Behavioral testing was carried out by measuring cold allodynia using an apparatus consisting of a cold plate maintained at 4±1° C. Rats were individually placed on the cold plate for a period of 5 minutes. The latency to the first paw withdrawal response and the number and total duration of withdrawal responses in 5 minutes were recorded for both the lesioned and the non-lesioned hindpaws.

[3] = test system: rats with spinal nerve ligature (Chung neuropathic pain model); experiment: Chung spinal nerve ligation (L5 and L6) neuropathic pain model, tactile stimulation with electronic Von Frey probe (Example 2); conditions: for Force Inducing Paw Withdrawal (g) Lesioned Paw / Force Inducing Paw Withdrawal (g) Non-lesioned Paw: hypersensitivity test after 8 days of twice daily administration
Source text: as §1, §2, §3, §4, §5, §6, §7
(§10) For tactile stimulation, the animal was placed under an inverted Plexiglas® box (17×11×14 cm) on a grid floor. The tip of an electronic Von Frey probe (Bioseb, Model 1610, Chaville, France) was applied with increasing pressure to the non-lesioned hindpaw or the lesioned hindpaw. The force required to induce paw withdrawal was automatically recorded. This procedure was carried out three times for each paw, and the mean force per paw was calculated to provide basic scores per animal.
Prior to receiving drug treatment, all animals were submitted to tactile stimulation and assigned to treatment groups, matched on the basis of their pain response. Each treatment group consisted of eight rats. The testing was performed blind. […]

[4] = test system: rats with spinal nerve ligature (Chung neuropathic pain model); experiment: Chung neuropathic pain model, tactile stimulation, second experiment (Example 3); conditions: acute; for effect on force inducing paw withdrawal: p.o.
Procedure: as §10, §8, §9

For `COc1cccc2c1CCC(=O)N2CCCN1CCN(c2cccc(Cl)c2)CC1` [OPC-14523, 1-[3-[4-(3-chlorophenyl)-1-piperazinyl]propyl]-5-methoxy-3,4-dihydro-2(1H)-quinolone], the “change of paw-withdrawal latency vs vehicle” value ([1]; acute, 10 mg/kg p.o., 30 minutes, NS) was −57%, the “change of paw-withdrawal latency vs vehicle” value ([1]; acute, 10 mg/kg p.o., lesioned paw, 4 hours) was “+190%” and the “change of paw-withdrawal latency vs vehicle” value ([1]; acute, 30 mg/kg p.o., lesioned paw, 4 hours) was 259%. For the same compound, the “change of paw-withdrawal latency vs vehicle” value ([1]; acute, 100 mg/kg p.o., lesioned paw, 4 hours) was 270%, the “change of paw-withdrawal latency vs vehicle” value ([1]; acute, 100 mg/kg p.o., non-lesioned paw, p<0.05) was −27% and the “change of paw-withdrawal latency vs vehicle” value ([1]; chronic, 30 mg/kg, lesioned paw, 4 hours, p<0.05) was “+62%”. For the same compound, the “effect on paw-withdrawal latency” value ([1]; chronic, non-lesioned paw) was “no effect”, the “Paw Withdrawal Latency (s) Lesioned Paw” value ([1]; 10 mg/kg p.o.) was 4.5 (p < 0.01) s and the “Paw Withdrawal Latency (s) Non-lesioned Paw” value ([1]; 10 mg/kg p.o.) was 43.7 (NS) s. The “Paw Withdrawal Latency (s) Lesioned Paw” value ([1]; 30 mg/kg p.o.) was 19.9 (NS) s, the “Paw Withdrawal Latency (s) Non-lesioned Paw” value ([1]; 30 mg/kg p.o.) was 37 (NS) s and the “Paw Withdrawal Latency (s) Lesioned Paw” value ([1]; 100 mg/kg p.o.) was 22.3 (NS) s. The “Paw Withdrawal Latency (s) Non-lesioned Paw” value ([1]; 100 mg/kg p.o.) was 39.1 (NS) s, the “effect on paw-withdrawal latency vs vehicle control” value ([1]; hypersensitivity test, lesioned paw at other doses, non-lesioned paw at any dose) was “No effects” and the “change of paw-withdrawal latency vs vehicle” value ([1]; hypersensitivity test, repeated treatment 10 mg/kg p.o., lesioned paw, p<0.01) was −67%. The “decrease of number of withdrawal responses” value ([2]; 30 mg/kg p.o., lesioned paw, 30 minutes, p<0.01) was 50%, the “change of number of withdrawal responses” value ([2]; 30 mg/kg p.o., lesioned paw, 4 hours, p<0.05) was −48% and the “change of total duration of withdrawal responses” value ([2]; 100 mg/kg p.o., 2 hours, p<0.05) was −95%. The “change of latency to paw withdrawal” value ([2]; 100 mg/kg p.o., lesioned paw, 30 minutes, p<0.01) was “+140%”, the “decrease of number of withdrawal responses” value ([2]; 100 mg/kg p.o., lesioned paw, 30 minutes, p<0.05) was 64% and the “change of latency to paw withdrawal” value ([2]; 100 mg/kg p.o., lesioned paw, 1 hour, p=0.24) was “+183%”. The “change of force inducing paw withdrawal vs vehicle” value ([3]; acute, 100 mg/kg p.o., lesioned paw, 1 hour) was 107%, the “effect on force inducing paw withdrawal” value ([3]; acute, 100 mg/kg p.o., lesioned paw, 2 hours) was “tended to increase” and the “change of force inducing paw withdrawal vs vehicle” value ([3]; acute, 100 mg/kg p.o., non-lesioned paw, 4 hours, p<0.01) was −27%. The “effect on force inducing paw withdrawal” value ([3]; acute, p.o., other doses or time points) was “no significant effects”, the “effect on force inducing paw withdrawal” value ([3]; chronic, twice daily, after 10 days, p.o., lesioned or non-lesioned paw) was “did not have clear effects” and the “Force Inducing Paw Withdrawal (g) Lesioned Paw” value ([3]; 10 mg/kg p.o.) was 17.6 (NS) g. For the same compound, the “Force Inducing Paw Withdrawal (g) Non-lesioned Paw” value ([3]; 10 mg/kg p.o.) was 72.9 (NS) g, the “Force Inducing Paw Withdrawal (g) Lesioned Paw” value ([3]; 30 mg/kg p.o.) was 15.1 (NS) g and the “Force Inducing Paw Withdrawal (g) Non-lesioned Paw” value ([3]; 30 mg/kg p.o.) was 83.5 (NS) g. The “Force Inducing Paw Withdrawal (g) Lesioned Paw” value ([3]; 100 mg/kg p.o.) was 16.2 (NS) g, the “Force Inducing Paw Withdrawal (g) Non-lesioned Paw” value ([3]; 100 mg/kg p.o.) was 78.1 (NS) g and the “effect on force inducing paw withdrawal vs vehicle control” value ([3]; hypersensitivity test, repeated treatment at three different doses, lesioned or non-lesioned paw) was “no significant effects”. For the same compound, the induction of hypersensitivity ([3]; repeated administration, tactile and thermal stimulation) was “does not induce hypersensitivity”, the “change of force inducing paw withdrawal vs vehicle” value ([4]; 30 mg/kg p.o., lesioned paw, 30 minutes, p=0.10) was “+46%” and the “change of force inducing paw withdrawal vs vehicle” value ([4]; 30 mg/kg p.o., lesioned paw, 2 hours, p=0.11) was “+79%”. For the same compound, the “change of force inducing paw withdrawal vs vehicle” value ([4]; 100 mg/kg p.o., lesioned paw, 30 minutes, p=0.11) was “+76%”, the “effect on force inducing paw withdrawal” value ([4]; lesioned paw) was “did not significantly affect” and the “effect on force inducing paw withdrawal” value ([4]; non-lesioned paw) was “no clear effects”.
